Assay results taken from US5574031A, “Piperazine carboxamides” (priority 1992, dated 1996).
Counter-ions that a name gives are not always drawn.

Legend:
D2 -receptors = target: T1, D2 -receptors (Rattus norvegicus, UniProt P61169); assay: Affinity to D2-receptors (3H-spiroperidol binding); conditions: 3H-spiroperidol as ligand
T1 construct: from tissue
Experimental: Test 2 Affinity to D2 -receptors.
The binding assay is carried out essentially as described by Leysen et al. (Mol. Pharmacol. 21,301-14, 1982) using ^3 H-spiroperidol as ligand.

5-HT2 receptors = target: T2, 5-HT2 receptors (Rattus norvegicus, UniProt P14842); assay: Affinity to 5-HT2 receptors (3H-ketanserin binding); conditions: 3H-ketanserin as ligand
T2 construct: from tissue
Experimental: Test 1. Affinity to 5-HT2 receptors
The binding assay is carried out essentially as described by Leysen et al. (Mol. Pharmacol. 21,301-14, 1982) using ^3 H-ketanserin as ligand.

T2 sequence (P14842 whole entry): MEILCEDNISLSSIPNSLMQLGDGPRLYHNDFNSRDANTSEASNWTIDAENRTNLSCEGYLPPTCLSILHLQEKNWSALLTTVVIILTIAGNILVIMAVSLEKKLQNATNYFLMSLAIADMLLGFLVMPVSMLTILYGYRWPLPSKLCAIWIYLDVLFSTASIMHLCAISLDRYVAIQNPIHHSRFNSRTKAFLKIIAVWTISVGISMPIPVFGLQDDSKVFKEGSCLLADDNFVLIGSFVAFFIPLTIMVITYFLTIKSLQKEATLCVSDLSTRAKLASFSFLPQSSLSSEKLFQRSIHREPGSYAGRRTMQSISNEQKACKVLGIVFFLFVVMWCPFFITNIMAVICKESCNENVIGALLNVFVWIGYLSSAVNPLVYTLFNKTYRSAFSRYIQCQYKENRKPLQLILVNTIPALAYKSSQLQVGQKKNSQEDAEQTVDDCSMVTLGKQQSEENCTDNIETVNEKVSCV
T1 sequence (P61169 whole entry): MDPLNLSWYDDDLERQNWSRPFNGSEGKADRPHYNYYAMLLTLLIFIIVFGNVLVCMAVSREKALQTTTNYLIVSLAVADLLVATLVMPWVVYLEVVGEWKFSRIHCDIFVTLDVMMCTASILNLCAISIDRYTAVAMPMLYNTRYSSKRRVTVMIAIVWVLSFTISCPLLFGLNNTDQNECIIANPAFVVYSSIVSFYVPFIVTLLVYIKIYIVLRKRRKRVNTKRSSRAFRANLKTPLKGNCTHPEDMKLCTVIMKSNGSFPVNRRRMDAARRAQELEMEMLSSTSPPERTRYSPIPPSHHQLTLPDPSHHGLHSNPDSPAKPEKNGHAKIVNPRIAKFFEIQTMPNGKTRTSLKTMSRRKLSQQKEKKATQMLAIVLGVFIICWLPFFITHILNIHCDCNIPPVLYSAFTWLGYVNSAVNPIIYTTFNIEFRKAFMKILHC

| SMILES | Ki (D2 -receptors) | Ki (5-HT2 receptors) |
| --- | --- | --- |
| CCNC(=O)N1CCN(CCOC(c2ccc(F)cc2)c2ccc(F)cc2)CC1 [3:1, 4-[2-[(4,4'Difluorobenzhydryl)oxy]-ethyl]-N-ethyl-1-piperazinecarboxamide hydrochloride] | > 10000 nM | 60 nM |
| CNC(=S)N1CCN(CCOC(c2ccc(F)cc2)c2ccc(F)cc2)CC1 [3:4, 4-[2-[(4,4'Difluorobenzhydryl)oxy]-ethyl]-N-methyl-1-piperazinethiocarboxamide hydrochloride] | 1600 nM | 20 nM |
| O=C(N1CCCC1)N1CCN(CCOC(c2ccc(F)cc2)c2ccc(F)cc2)CC1 [6:2, 1-[2-[(4,4'-Difluorobenzhydryl)oxy]ethyl]-4-(pyrrolidino-carbonyl)piperazine hydrochloride] | 1780 nM | 15 nM |
| CCNC(=O)N1CCN(CCCC(c2ccc(F)cc2)c2ccc(F)cc2)CC1 [Amperozide, reference compound] | 540 nM | 17 nM |
